Reference: paper PMC8486872, “A rational blueprint for the design of chemically-controlled protein switches” (Nature Communications, 2021)
“And” between values parts separate entries of the source, which are not always exact repeats. Equal values may be shown once.

Test system: SEAP and Luciferase expression in HEK293T cells
Assay: SIMO designer cells (AIR-1/2-GEMS + CDH-1/2-TF)
Format: cell-based
Parameters: Bottom (best-fit value) / Top (best-fit value) / Span (best-fit value): unit not given here
Description: Fig. 5 Orthogonal chemical switches enable implementation of multi-input multi-output control modes in mammalian cells. a Scheme of multi-inputs multi-outputs (MIMO) designer cells where two drugs control two different outputs. b, c Cells were co-transfected with AIR-1/2-GEMS and CDH-3-TF regulate SEAP and Luciferase expression, respectively. […] AIR-1/2-GEMS coupled with SEAP expression circuits were co-transfected with CDH-1/2-TF circuits which control the Luciferase production. Respective drug concentrations ranged from 0.001 nM to 1 µM. All values presented are mean ± s.d. of three replicates and curves were fitted by four-parameters nonlinear regression. b, c, e, f, h, i Source data are available in the source data file.
Finally, we engineered SIMO cells (Fig. 5g) using two designed switches that produce ON and OFF responses upon exposure to the same drug. We transfected cells with combinations of AIR-GEMS and CDH-TFs which controlled the expression of the reporter proteins SEAP and Luciferase, respectively. […] Therefore, computational design expanded the repertoire of protein switches controlled by the same compounds that can be used to simultaneous turn ON and OFF synergistic outputs. […]
AIR-1-GEMS coupled with SEAP expression circuits (i) and CDH-1-TF circuits which control the Luciferase production (j). j-k) Quantification of SEAP and Luciferase activities under Drug-2. AIR-2-GEMS coupled with SEAP expression circuits (k) and CDH-2-TF circuits which control the Luciferase production (l). b-k) Each data point represents the mean of n = 3 biological replicates, and the dose-dependent curve were fitted using four-parameter nonlinear regression.

[1] = Fig S13j, AIR-2-GEMS control SEAP expression only, Drug-2 3.16 nM
[2] = Fig S13j, AIR-2-GEMS control SEAP expression only, Drug-2 10 nM
[3] = Fig S13j, AIR-2-GEMS control SEAP expression only, Drug-2 100 nM
[4] = Fig S13j, AIR-2-GEMS control SEAP expression only, Drug-2 316 nM
[5] = Fig S13j, AIR-2-GEMS control SEAP expression only, Drug-2 1000 nM
[6] = sheet Figure5i, SEAP, four-parameter fit

CC1(C)CCC(CN2CCN(c3ccc(C(=O)NS(=O)(=O)c4ccc(NCC5CCOCC5)c([N+](=O)[O-])c4)c(Oc4cnc5[nH]ccc5c4)c3)CC2)=C(c2ccc(Cl)cc2)C1 [Drug-2, Venetoclax]
SEAP and Luciferase outputs in SIMO cells (0.001 nM to 1 µM): simultaneously activated SEAP production and suppressed the expression of Luciferase | SEAP (Fig5i, turn ON (title: via AIR-1-GEMS), 0.001 nM): 11.0539 U/L and 12.4374 U/L and 11.7528 U/L | SEAP (Fig5i, turn ON (title: via AIR-1-GEMS), 0.005 nM): 14.3953 U/L and 10.7601 U/L and 8.34 U/L | SEAP (Fig5i, turn ON (title: via AIR-1-GEMS), 0.05 nM): 12.0377 U/L and 10.3343 U/L and 7.481 U/L | SEAP (Fig5i, turn ON (title: via AIR-1-GEMS), 0.5 nM): 13.1482 U/L and 9.328 U/L and 7.802 U/L | SEAP (Fig5i, turn ON (title: via AIR-1-GEMS), 1 nM): 16.8267 U/L and 13.7148 U/L and 13.9654 U/L | SEAP (Fig5i, turn ON (title: via AIR-1-GEMS), 5 nM): 12.4083 U/L and 18.0777 U/L and 19.7017 U/L | SEAP (Fig5i, turn ON (title: via AIR-1-GEMS), 10 nM): 32.3034 U/L and 32.696 U/L and 36.5671 U/L | SEAP (Fig5i, turn ON (title: via AIR-1-GEMS), 50 nM): 48.8555 U/L | SEAP (Fig5i, turn ON (title: via AIR-1-GEMS), 100 nM): 61.1746 U/L and 72.5404 U/L | SEAP (Fig5i, turn ON (title: via AIR-1-GEMS), 500 nM): 94.0018 U/L and 86.0577 U/L | SEAP (Fig5i, turn ON (title: via AIR-1-GEMS), 1000 nM): 105.374 U/L and 86.4725 U/L | SEAP (Fig S13j, AIR-2-GEMS control SEAP expression only, Drug-2 0.01 nM): 269 U/L and 225 U/L and 167 U/L | SEAP (Fig S13j, AIR-2-GEMS control SEAP expression only, Drug-2 1 nM): 225 U/L and 173 U/L and 167 U/L | Luciferase [1]: 18.3864 RLU and 14.0122 RLU and 11.0547 RLU | SEAP [1]: 199 U/L and 215 U/L and 123 U/L | Luciferase [2]: 59.3143 RLU and 64.1927 RLU and 53.9121 RLU | SEAP [2]: 143 U/L and 145 U/L and 125 U/L | SEAP (Fig S13j, AIR-2-GEMS control SEAP expression only, Drug-2 31.6 nM): 149 U/L and 123 U/L | Luciferase [3]: 277.707 RLU and 262.611 RLU and 223.323 RLU | SEAP [3]: 157 U/L and 127 U/L and 107 U/L | Luciferase [4]: 280.311 RLU and 280.175 RLU and 202.801 RLU | SEAP [4]: 177 U/L and 117 U/L and 123 U/L | Luciferase [5]: 203.844 RLU and 222.434 RLU and 194.549 RLU | SEAP [5]: 191 U/L and 169 U/L and 179 U/L | SEAP (Fig S13k, CDH-2-TF control Luciferase expression only, Drug-2 0.01 nM): 77283 U/L and 94282 U/L and 94549 U/L | SEAP (Fig S13k, CDH-2-TF control Luciferase expression only, Drug-2 0.1 nM): 83949 U/L and 102019 U/L and 91551 U/L | SEAP (Fig S13k, CDH-2-TF control Luciferase expression only, Drug-2 1 nM): 97527 U/L and 93132 U/L and 98408 U/L | SEAP (Fig S13k, CDH-2-TF control Luciferase expression only, Drug-2 3.16 nM): 96858 U/L and 87221 U/L and 87443 U/L | SEAP (Fig S13k, CDH-2-TF control Luciferase expression only, Drug-2 10 nM): 78643 U/L and 87229 U/L and 90599 U/L | SEAP (Fig S13k, CDH-2-TF control Luciferase expression only, Drug-2 31.6 nM): 80585 U/L and 86321 U/L and 73406 U/L | SEAP (Fig S13k, CDH-2-TF control Luciferase expression only, Drug-2 100 nM): 64234 U/L and 74136 U/L and 75517 U/L | SEAP (Fig S13k, CDH-2-TF control Luciferase expression only, Drug-2 316 nM): 47807 U/L and 51555 U/L and 52806 U/L | SEAP (Fig S13k, CDH-2-TF control Luciferase expression only, Drug-2 1000 nM): 34743 U/L and 30667 U/L and 26001 U/L | IC50 (Homo sapiens, HEK-293T, sheet Figure5i, SEAP column (turn ON), four-parameter fit, given as IC50, read-out: IC50 (best-fit value)): 5.24 nM | Bottom (best-fit value) [6]: 28.34 | HillSlope (best-fit value) [6]: 1.403 | Span (best-fit value) [6]: 390.7 | Top (best-fit value) [6]: 419 | logIC50 (best-fit value) (sheet Figure5i, SEAP, four-parameter fit, drug in nM): 0.7193
